# Experimental data published in patent publication US20260216362A1, “ANTI-BDCA2 ANTIBODY-DRUG CONJUGATE AND USE THEREOF” (DUALITY BIOLOGICS (SHANGHAI) CO., LTD., priority 2022, published 2026).
# Tests used:
# human PBMC cells = experiment: Inhibition by humanized antibodies of IFNα release from human PBMC cells stimulated by CpG-A; assay type: cell-based; conditions: Table 4, humanized antibodies; read-out: EC50, inhibition of release of cytokine IFNα from human PBMC cells stimulated by CpG-A
# Experimental: A series of humanized candidate antibody molecules were selected and subjected to the function detection of inhibiting the release of the cytokine IFNα from the human PBMC cells stimulated by CpG-A. The cryopreserved human PBMC cells were thawed and incubated in a complete culture medium (1640+10% FBS+1×NEAA+1×L-Glutamine) overnight for 18 h. The next day, the PBMC cells were collected and centrifuged at 600 g for 8 min, and the supernatant was discarded. The cells were resuspended to 8×10^6 cells/mL in a culture medium (1640+10% FBS), and the mixture was added to a 3799 cell culture plate at 100 μL/well. The test antibody was diluted in a 10-fold gradient (0.0001 nM-10 nM, and 0 concentration point was used as a control) with the culture medium (1640+10% FBS), and the diluted antibody was added to the PBMCs at 50 μL/well. The cells were resuspended and then incubated at 37° C. for 6 h. 50 μL of CpG-A (2 μM, Invitrogen, tlrl-2216-5) diluted in the culture medium (1640+10% FBS) was added to each well and mixed, followed by incubation at 37° C. for another 20 h. […]
# The antibody MT1/3/5 (Mabtech, 3425-1H-20) was diluted to 4 μg/mL with PBS, and added to a CORNING ELISA plate at 100 μL/well. […] The values at OD450 nm were read on an ELISA plate reader, and curves were fitted using GraphPad Prism6. […]
# [1] = test system: human peripheral blood mononuclear cells; experiment: Inhibition of CpG-A-induced TNF-α production from human peripheral blood mononuclear cells by BDCA2-ADC; assay type: cell-based; conditions: 0.5 μM CpG-A, 24 h
# Experimental: The inhibitory effects of the antibody-drug conjugate molecules of the present application on the production from peripheral blood mononuclear cells were detected. Peripheral blood mononuclear cells produce a large number of cytokines after the stimulation of the TLR9 agonist CpG-A. The peripheral blood mononuclear cells were treated in vitro with the BDCA2 antibody-drug conjugate at different concentrations, and IFNα and TNFα produced by the peripheral blood mononuclear cells were quantitatively detected after the stimulation of 0.5 μM CpG-A for a certain period of time. The in vitro activity of the ligand-drug conjugates was evaluated based on the extent of cytokine inhibition.
# The cryopreserved human peripheral blood mononuclear cells were thawed, resuspended in a complete culture medium and counted, and the cell suspension was adjusted to 2.5×10^6 cells/mL with the culture medium and cultured overnight. […] The supernatant was collected, and the TNF-α and IFN-α concentration levels in the supernatant were detected using an ELISA kit. Dose-response data were fitted to an S-shaped curve using non-linear regression, and IC50 values were calculated.
# TNF-α concentration assay was performed using a Dakewe TNF-α ELISA kit (Cat. No. 1117202). […] The reading at wavelength 450 nm was detected using an M2e instrument within 10 min after the termination. […]
substance,measurement,setting,value
"BIIB059: reference antibody specifically binding to BDCA2, sequence derived from U.S. Pat. No. 9,902,775B2; SEQ ID NO: 25 and 26 [reference compound]",EC50,human PBMC cells,0.04 nM
same,inhibitory effect on TNF-α secretion,[1],did not have an inhibitory effect
